Blank lines part the entries; values can stand above or below the molecule they belong to.
Legend:
[1] = test system: AR-amplified prostate cancer cells; settings: cited from earlier work
[2] = target: T1, VHL-ElonginBC complex (Homo sapiens, UniProt P40337); assay: Fluorescence-polarization competitive binding assay for VHL protein
T1 construct: His-TEV (cleaved yes); made in house; host or cells: E. coli BL21(DE3)
Description: Cloning and Purification of VHL-ElonginBC complex. […] The cells were induced overnight with 0.4 mM IPTG at 24° C. […] The cell suspension was lysed by sonication and debris removed via centrifugation. […] The protein complex was eluted in 20 mM Tris-HCl pH 7.0, 200 mM NaCl and 300 mM Imidazole, dialyzed into 20 mM Tris-HCl pH 7.0, 150 mM NaCl, and 0.01% bME and incubated with TEV protease overnight at 4° C. […] The flow through containing the VHL complex was diluted to 75 mM NaCl and applied to a HiTrap Q column (GE Healthcare). The sample was eluted with a salt gradient (0.075-1 M NaCl), concentrated and further purified on a Superdex S75 column (GE Healthcare) pre-equilibrated with 20 mM Bis-Tris 7.0, 150 mM NaCl and 1 mM DTT. Samples were aliquoted and stored at −80° C.
The IC50 and Ki values of compounds were determined in competitive binding experiments. […] IC50 values were determined by nonlinear regression fitting of the competition curves. Ki values of competitive inhibitors were obtained directly by nonlinear regression fitting, based upon the KD values of the probe and concentrations of the protein and probe in the competitive assays. All the FP competitive experiments were performed in duplicate in three independent experiments.

SMILES: Cc1ncsc1-c1ccc(CNC(=O)[C@@H]2C[C@@H](O)CN2C(=O)[C@@H](NC(=O)COCCCCOc2ccc(-c3ccc(N4C(=S)N(c5ccc(C#N)c(C(F)(F)F)c5)C(=O)C4(C)C)cc3)cc2)C(C)(C)C)cc1 [ARCC-4, (4R)-1-((S)-2-(2-(4-((4′-(3-(4-cyano-3-(trifluoromethyl)phenyl)-5,5-dimethyl-4-oxo-2-thioxoimidazolidin-1-yl)-[1,1′-biphenyl]-4-yl)oxy)butoxy)acetamido)-3,3-dimethylbutanoyl)-4-hydroxy-N-(4-(4-methylthiazol-5-yl)benzyl)pyrrolidine-2-carboxamide]
Inducing apoptosis and inhibiting proliferation, compared with enzalutamide [1]: more potent and effective than enzalutamide

Kd ([2]; tracer binding to VHL complex (VHL, Elongin B, Elongin C)): 2.4 nM
SMILES: Cc1cc([C@H](C(=O)N2C[C@H](O)C[C@H]2C(=O)N[C@@H](CC(=O)NCCOCCOCCOCCNC(=O)c2ccc3c(c2)C(=O)OC32c3ccc(O)cc3Oc3cc(O)ccc32)c2ccc(-c3scnc3C)cc2)C(C)C)on1 [HXC78, (2S,4R)—N—((S)-1-(3′,6′-dihydroxy-3-oxo-3H-spiro[isobenzofuran-1,9′-xanthen]-5-yl)-17-(4-(4-methylthiazol-5-yl)phenyl)-1,15-dioxo-5,8,11-trioxa-2,14-diazaheptadecan-17-yl)-4-hydroxy-1-((R)-3-methyl-2-(3-methylisoxazol-5-yl)butanoyl)pyrrolidine-2-carboxamide, reference compound]

IC50 ([2]; FP competition, VHL protein and fluorescent probe both 5 nM): 164 ± 13 nM
SMILES: CC(=O)N[C@H](C(=O)N1C[C@H](O)C[C@H]1C(=O)N[C@@H](C)c1ccc(-c2scnc2C)cc1)C(C)(C)C [VHL-b, (2S,4R)-1-((S)-2-acetamido-3,3-dimethylbutanoyl)-4-hydroxy-N—((S)-1-(4-(4-methylthiazol-5-yl)phenyl)ethyl)pyrrolidine-2-carboxamide]
